Measured values from PMC8402917 (Viruses, 2021).

Molecular target: T1, SARS-CoV-2 3CLpro (3CL protease, main protease) (Severe acute respiratory syndrome coronavirus 2, UniProt P0DTD1)
T1 construct: gene rep
Assay: biochemical

Compound `CC1=C(/C=C/C(C)=C/C=C/C(C)=C/C(=O)O)C(C)(C)CCC1` [all-trans retinoic acid] has an IC50 of 24.7 ± 1.65 µM.
